Laboratory results as given in patent US20240270762A1, “PENICILLIN-BINDING PROTEIN INHIBITORS” (priority 2021, published 2024).
In brackets after ≈: the same amount, converted by molar mass.

Tests used:
[1] = test system: P. aeruginosa CDC-0090; assay: microbe, parasite or virus in culture; format: cell-based; conditions: Pseudomonas aeruginosa, CDC0090, read-out: Minimum inhibitory concentration, P. aeruginosa CDC-0090
[2] = test system: B. thailandensis ATCC 700388; assay: microbe, parasite or virus in culture; format: cell-based; conditions: Burkholderia thailandensis, ATCC700388, read-out: Minimum inhibitory concentration (MIC), B. thailandensis ATCC 700388
[3] = molecular target: T1, A. baumannii PBP1a (Acinetobacter baumannii, UniProt A0ABX6CK30); assay: Bocillin-FL competition binding via gel filtration, A. baumannii PBP1a; conditions: competition binding assay using Bocillin-FL via gel filtration; read-out: A. baumannii PBP1a Potency
T1 sequence (A0ABX6CK30 1-851): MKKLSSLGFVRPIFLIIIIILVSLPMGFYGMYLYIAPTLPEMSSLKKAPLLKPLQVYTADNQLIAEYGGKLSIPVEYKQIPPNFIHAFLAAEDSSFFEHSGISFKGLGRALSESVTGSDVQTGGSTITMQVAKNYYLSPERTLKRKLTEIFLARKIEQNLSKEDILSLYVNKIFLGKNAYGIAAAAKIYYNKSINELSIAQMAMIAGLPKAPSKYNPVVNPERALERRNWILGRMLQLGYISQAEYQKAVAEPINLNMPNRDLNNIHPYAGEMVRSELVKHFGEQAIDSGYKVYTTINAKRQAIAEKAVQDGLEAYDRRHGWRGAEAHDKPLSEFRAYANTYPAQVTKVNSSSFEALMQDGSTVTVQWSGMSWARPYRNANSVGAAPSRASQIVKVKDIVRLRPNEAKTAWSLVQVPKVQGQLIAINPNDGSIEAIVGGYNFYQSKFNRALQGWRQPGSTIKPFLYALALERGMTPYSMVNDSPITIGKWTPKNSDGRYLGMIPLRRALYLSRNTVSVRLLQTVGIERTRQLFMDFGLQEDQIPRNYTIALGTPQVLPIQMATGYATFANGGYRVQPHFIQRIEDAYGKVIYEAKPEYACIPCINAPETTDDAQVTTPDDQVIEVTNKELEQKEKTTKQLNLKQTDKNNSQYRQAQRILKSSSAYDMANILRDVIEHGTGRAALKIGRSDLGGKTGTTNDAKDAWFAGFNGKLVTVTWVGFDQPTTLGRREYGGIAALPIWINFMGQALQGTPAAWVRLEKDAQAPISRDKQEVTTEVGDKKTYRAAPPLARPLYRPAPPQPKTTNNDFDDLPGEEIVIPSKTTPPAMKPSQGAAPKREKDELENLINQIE
How it was run: (§1)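 Competitive equilibrium binding; reporter Bocillin-FL. PBP + inhibitor (titration) pre-incubated → Bocillin-FL, 15 min → gel filtration → fluorescence. EC50 from Hill fit of fraction bound vs [inhibitor].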

[4] = test system: A. baumannii ATCC 19606; assay: microbe, parasite or virus in culture; format: cell-based; conditions: Acinetobacter baumannii, ATCC19606, read-out: MIC, A. baumannii ATCC 19606
[5] = test system: P. aeruginosa ATCC 27853; assay: microbe, parasite or virus in culture; format: cell-based; conditions: Pseudomonas aeruginosa, ATCC27853, read-out: Minimum inhibitory concentration, P. aeruginosa ATCC 27853
[6] = test system: B. humptydooensis ATCC BAA-2767; assay: microbe, parasite or virus in culture; format: cell-based; conditions: Burkholderia humptydooensis, ATCCBAA2767, read-out: Minimum inhibitory concentration (MIC), B. humptydooensis ATCC BAA-2767
[7] = molecular target: A. baumannii PBP2 (Acinetobacter baumannii, UniProt D0C8Z9); assay: Bocillin-FL competition binding via gel filtration, A. baumannii PBP2
A. baumannii PBP2, sequence (D0C8Z9 whole entry): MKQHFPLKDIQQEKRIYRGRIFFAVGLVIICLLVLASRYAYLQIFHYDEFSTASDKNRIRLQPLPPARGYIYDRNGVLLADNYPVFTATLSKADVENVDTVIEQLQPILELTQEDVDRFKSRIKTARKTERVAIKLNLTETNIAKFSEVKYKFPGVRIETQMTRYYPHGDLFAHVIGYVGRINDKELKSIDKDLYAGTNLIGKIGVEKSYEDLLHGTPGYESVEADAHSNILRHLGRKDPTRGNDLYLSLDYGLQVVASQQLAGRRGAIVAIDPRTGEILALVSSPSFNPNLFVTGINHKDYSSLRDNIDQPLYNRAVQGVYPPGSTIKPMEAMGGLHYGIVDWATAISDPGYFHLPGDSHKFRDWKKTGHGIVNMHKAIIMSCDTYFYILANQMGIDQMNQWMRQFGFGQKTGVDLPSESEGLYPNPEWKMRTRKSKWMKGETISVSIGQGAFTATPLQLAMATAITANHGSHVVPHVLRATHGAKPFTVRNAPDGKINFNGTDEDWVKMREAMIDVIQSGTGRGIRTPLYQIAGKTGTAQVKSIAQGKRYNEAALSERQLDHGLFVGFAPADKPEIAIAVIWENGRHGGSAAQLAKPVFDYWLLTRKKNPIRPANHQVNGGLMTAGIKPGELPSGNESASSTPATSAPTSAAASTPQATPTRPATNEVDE
How it was run: as §1

[8] = test system: A. baumannii CDC-0045; assay: microbe, parasite or virus in culture; format: cell-based; conditions: Acinetobacter baumannii, CDC0045, read-out: MIC, A. baumannii CDC-0045
[9] = test system: P. aeruginosa CDC-0054; assay: microbe, parasite or virus in culture; format: cell-based; conditions: Pseudomonas aeruginosa, CDC0054, read-out: Minimum inhibitory concentration, P. aeruginosa CDC-0054
[10] = test system: A. baumannii ATCC 17978; assay: microbe, parasite or virus in culture; format: cell-based; conditions: Acinetobacter baumannii, ATCC17978, read-out: MIC, A. baumannii ATCC 17978

SMILES	MIC [1] [µg/mL]	MIC [2] [µg/mL]	EC50 [3] [µM]	MIC [4] [µg/mL]	MIC [5] [µg/mL]	MIC [6] [µg/mL]	EC50 [7] [µM]	MIC [8] [µg/mL]	MIC [9] [µg/mL]	MIC [10] [µg/mL]
O=C(O)c1c(F)ccc2c1OB(O)[C@@H](NC(=O)[C@H](NC(=O)N1CCN(C3CCN(C(=O)c4c(F)ccc(O)c4F)CC3)C1=O)c1cc(F)c(O)c(O)c1Cl)C2 (single isomer, unassigned) [Example 439]	< 1	< 1	10 to 50	< 1	< 1	< 1	< 10	< 1	2 to 4 (≈ 2.52 to 5.04 µM)	< 1
O=C(O)c1c(F)ccc2c1OB(O)[C@@H](NC(=O)[C@H](NC(=O)N1CCN(C3CCN(C(=O)c4c(F)ccc(O)c4Cl)CC3)C1=O)c1cc(F)c(O)c(O)c1Cl)C2 (single isomer, unassigned) [Example 440]	< 1	< 1	< 10	< 1	< 1	< 1	< 10	< 1	< 1	< 1
O=C(O)c1c(F)ccc2c1OB(O)[C@@H](NC(=O)[C@H](NC(=O)N1CCN(C3CCN(C(=O)c4cc(F)c(F)c(O)c4F)CC3)C1=O)c1cc(F)c(O)c(O)c1Cl)C2 (single isomer, unassigned) [Example 441]	< 1	< 1	< 10	< 1	2 to 4 (≈ 2.46 to 4.93 µM)	< 1	< 10	< 1	< 1	< 1
O=C(O)c1c(F)ccc2c1OB(O)[C@@H](NC(=O)[C@H](NC(=O)N1CCN(C3CCN(C(=O)c4cc(O)cc(O)c4)CC3)C1=O)c1cc(F)c(O)c(O)c1Cl)C2 (single isomer, unassigned) [Example 442]	< 1	< 1	< 10	< 1	< 1	< 1	< 10	< 1	< 1	< 1
O=C(O)c1c(F)ccc2c1OB(O)[C@@H](NC(=O)[C@H](NC(=O)N1CCN(C3CCN(C(=O)c4cc(O)c(F)c(O)c4)CC3)C1=O)c1cc(F)c(O)c(O)c1Cl)C2 (single isomer, unassigned) [Example 443]	< 1	< 1	< 10	< 1	< 1	< 1	< 10	< 1	< 1	< 1
O=C(O)c1c(F)ccc2c1OB(O)[C@@H](NC(=O)[C@H](NC(=O)N1CCN(C3CCN(C(=O)c4cc(O)c(F)c(O)c4F)CC3)C1=O)c1cc(F)c(O)c(O)c1Cl)C2 (single isomer, unassigned) [Example 444]	< 1	< 1	< 10	< 1	< 1	< 1	< 10	< 1	< 1	< 1
O=C(O)c1c(F)ccc2c1OB(O)[C@@H](NC(=O)[C@H](NC(=O)N1CCN(C3CCN(C(=O)Nc4cccc(O)c4F)CC3)C1=O)c1cc(F)c(O)c(O)c1Cl)C2 (single isomer, unassigned) [Example 446]	< 1	< 1	10 to 50	< 1	< 1	< 1	< 10	< 1	< 1	< 1
O=C(O)c1c(F)ccc2c1OB(O)[C@@H](NC(=O)[C@H](NC(=O)N1CCN(C3CCN(C(=O)Nc4cc(O)ccc4Cl)CC3)C1=O)c1cc(F)c(O)c(O)c1Cl)C2 (single isomer, unassigned) [Example 448]	< 1	< 1	< 10	< 1	< 1	< 1	< 10	< 1	< 1	< 1
O=C(O)c1c(F)ccc2c1OB(O)[C@@H](NC(=O)[C@H](NC(=O)N1CCN(C3CCN(C(=O)Nc4ccc(F)c(O)c4)CC3)C1=O)c1cc(F)c(O)c(O)c1Cl)C2 (single isomer, unassigned) [Example 449]	< 1	< 1	< 10	< 1	< 1	2 to 4 (≈ 2.53 to 5.06 µM)	< 10	< 1	< 1	< 1
O=C(O)c1c(F)ccc2c1OB(O)[C@@H](NC(=O)[C@H](NC(=O)N1CCN(C3CCN(C(=O)Nc4cc(O)cc(F)c4)CC3)C1=O)c1cc(F)c(O)c(O)c1Cl)C2 (single isomer, unassigned) [Example 450]	< 1	< 1	< 10	< 1	< 1	8 to 16 (≈ 10.1 to 20.2 µM)	< 10	< 1	< 1	< 1
O=C(O)c1c(F)ccc2c1OB(O)[C@@H](NC(=O)[C@H](NC(=O)N1CCN(C3CCN(C(=O)Nc4cc(O)ccc4F)CC3)C1=O)c1cc(F)c(O)c(O)c1Cl)C2 (single isomer, unassigned) [Example 451]	< 1	< 1	< 10	< 1	< 1	< 1	< 10	< 1	< 1	< 1
O=C(O)c1c(F)ccc2c1OB(O)[C@@H](NC(=O)[C@H](NC(=O)N1CCN(C3CCN(C(=O)Nc4c(F)ccc(O)c4F)CC3)C1=O)c1cc(F)c(O)c(O)c1Cl)C2 (single isomer, unassigned) [Example 454]	2 to 4 (≈ 2.47 to 4.95 µM)	< 1	< 10	< 1	2 to 4 (≈ 2.47 to 4.95 µM)	< 1	< 10	< 1	< 1	< 1
O=C(O)c1c(F)ccc2c1OB(O)[C@@H](NC(=O)[C@H](NC(=O)N1CCN(C3CCN(C(=O)Nc4c(F)ccc(O)c4Cl)CC3)C1=O)c1cc(F)c(O)c(O)c1Cl)C2 (single isomer, unassigned) [Example 455]	< 1	< 1	< 10	< 1	< 1	< 1	< 10	< 1	< 1	< 1
O=C(O)c1c(F)ccc2c1OB(O)[C@@H](NC(=O)[C@H](NC(=O)N1CCN(C3CCN(C(=O)c4ccc(O)cc4)CC3)C1=O)c1cc(F)c(O)c(O)c1Cl)C2 (single isomer, unassigned) [Example 463]	< 1	< 1	< 10	< 1	< 1	< 1	< 10	< 1	< 1	< 1
O=C(O)c1cccc2c1OB(O)[C@@H](NC(=O)C(NC(=O)N1CCN(Cc3cc(F)c(O)c(O)c3Cl)C(=O)C1=O)c1ccc(P(=O)(O)O)cc1)C2 (stereo partly drawn) [Example 164, (3R)-3-(2-(4-(2-chloro-5-fluoro-3,4-dihydroxybenzyl)-2,3-dioxopiperazine-1-carboxamido)-2-(4-phosphonophenyl)acetamido)-2-hydroxy-3,4-dihydro-2H-benzo[e][1,2]oxaborinine-8-carboxylic acid]	< 1	< 1	< 10	< 1	< 1	< 1	< 10	< 1	< 1	< 1
